Measurements published in patent publication US10781189B2, “1,2,4-Oxadiazole and thiadiazole compounds as immunomodulators” (Aurigene Discovery Technologies Limited, priority 2015, dated 2020).

What follows are molecules tested against T1, Recombinant mouse PD-L1 (Mus musculus, UniProt Q9EP73) (assay: Rescue of mouse splenocyte proliferation in the presence of recombinant PD-L1 (CFSE proliferation assay)). Settings: 100 nM compound; CFSE-labelled C57 BL6 mouse splenocytes + anti-CD3/CD28 + PD-L1 (100 ng/mL), 72 h; normalised to stimulated splenocytes as 100%; read-out: Percent rescue of splenocyte proliferation (@100 nM).
T1 construct: Fc (Fc chimera); purchased R&D Systems 1019-B7-100
Assay type: cell-based
Procedure: Example 15: Rescue of Mouse Splenocyte Proliferation in the Presence of Recombinant PD-L1
Recombinant mouse PD-L1 (rm-PDL-1, cat no: 1019-B7-100; R&D Systems) were used as the source of PD-L1.
Mouse splenocytes harvested from 6-8 weeks old C57 BL6 mice; RPMI 1640 (GIBCO, Cat #11875); DMEM with high glucose (GIBCO, Cat # D6429); Fetal Bovine Serum [Hyclone, Cat # SH30071.03]; Penicillin (10000 unit/mL)-Streptomycin (10,000 μg/mL) Liquid (GIBCO, Cat #15140-122); MEM Sodium Pyruvate solution 100 mM (100×), Liquid (GIBCO, Cat #11360); Nonessential amino acid (GIBCO, Cat #11140); L-Glutamine (GIBCO, Cat #25030); Anti-CD3 antibody (eBiosciences—16-0032); Anti-CD28 antibody (eBiosciences—16-0281); ACK lysis buffer (1 mL) (GIBCO, Cat #-A10492); Histopaque (density-1.083 gm/mL) (SIGMA 10831); Trypan blue solution (SIGMA-T8154); 2 mL Norm Ject Luer Lock syringe-(Sigma 2014-12); 40 μm nylon cell strainer (BD FALCON 35230); Hemacytometer (Bright line-SIGMA Z359629); FACS Buffer (PBS/0.1% BSA): Phosphate Buffered Saline (PBS) pH 7.2 (HiMedia TS1006) with 0.1% Bovine Serum Albumin (BSA) (SIGMA A7050) and sodium azide (SIGMA 08591); 5 mM stock solution of CFSE: CFSE stock solution was prepared by diluting lyophilized CFSE with 180 μL of Dimethyl sulfoxide (DMSO C2H6SO, SIGMA-D-5879) and aliquoted in to tubes for further use. Working concentrations were titrated from 10 μM to 1 μM. (eBioscience—650850-85); 0.05% Trypsin and 0.02% EDTA (SIGMA 59417C); 96-well format ELISA plates (Corning CLS3390); BD FACS caliber (E6016); Recombinant mouse B7-H1/PDL1 Fc Chimera, (rm-PD-L1 cat no: 1019-B7-100).
Splenocytes harvested in a 50 mL falcon tube by mashing mouse spleen in a 40 μm cell strainer were further treated with 1 mL ACK lysis buffer for 5 min at room temperature. After washing with 9 mL of RPMI complete media, cells were re-suspended in 3 mL of 1×PBS in a 15 mL tube. 3 mL of Histopaque was added carefully to the bottom of the tube without disturbing overlaying splenocyte suspension. After centrifuging at 800×g for 20 min at room temperature, the opaque layer of splenocytes was collected carefully without disturbing/mixing the layers. Splenocytes were washed twice with cold 1×PBS followed by total cell counting using Trypan Blue exclusion method and used further for cell based assays.
Splenocytes were cultured in RPMI complete media (RPMI+10% fetal bovine serum+1 mM sodium pyruvate+10,000 units/mL penicillin and […] streptomycin) and maintained in a CO2 incubator with 5% CO2 at 37° C.
CFSE is a dye that passively diffuses into cells and binds to intracellular proteins. 1×10^6 cells/mL of harvested splenocytes were treated with 5 μM of CFSE in pre-warmed 1×PBS/0.1% BSA solution for 10 min at 37° C. Excess CFSE was quenched using 5 volumes of ice-cold culture media to the cells and incubated on ice for 5 min. CFSE labelled splenocytes were further given three washes with ice cold complete RPMI media. CFSE labelled 1×10^5 splenocytes added to wells containing either MDA-MB231 cells (1×10^5 cells cultured in high glucose DMEM medium) or recombinant human PDL-1 (100 ng/mL) and test compounds. Splenocytes were stimulated with anti-mouse CD3 and anti-mouse CD28 antibody (1 μg/mL each) and the culture was further incubated for 72 h at 37° C. with 5% CO2. Cells were harvested and washed thrice with ice cold FACS buffer and % proliferation was analysed by flow cytometry with 488 nm excitation and 521 nm emission filters.
Percent splenocyte proliferation was analysed using cell quest FACS program and percent rescue of splenocyte proliferation by compound was estimated after deduction of % background proliferation value and normalising to % stimulated splenocyte proliferation (positive control) as 100%.
Stimulated splenocytes: Splenocytes+anti-CD3/CD28 stimulation
Background proliferation: Splenocytes+anti-CD3/CD28+PD-L1
Compound proliferation: Splenocytes+anti-CD3/CD28+PD-L1+Compound […]

T1 sequence (Q9EP73 with tags, fused parts or gaps limits assumed): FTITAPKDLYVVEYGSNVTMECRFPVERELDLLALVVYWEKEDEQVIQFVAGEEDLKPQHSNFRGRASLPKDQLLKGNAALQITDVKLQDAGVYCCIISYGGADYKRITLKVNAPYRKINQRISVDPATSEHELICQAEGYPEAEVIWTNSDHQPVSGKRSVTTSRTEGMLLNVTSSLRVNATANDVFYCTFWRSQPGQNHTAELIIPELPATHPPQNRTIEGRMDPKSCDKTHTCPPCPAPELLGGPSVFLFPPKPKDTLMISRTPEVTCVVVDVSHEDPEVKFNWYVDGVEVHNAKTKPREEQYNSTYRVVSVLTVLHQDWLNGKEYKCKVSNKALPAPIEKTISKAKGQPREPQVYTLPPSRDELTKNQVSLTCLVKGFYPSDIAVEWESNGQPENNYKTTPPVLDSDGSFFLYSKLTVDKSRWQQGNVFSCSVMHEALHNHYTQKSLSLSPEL

| Compound | activation at 0.1 µM |
| --- | --- |
| CC(O)[C@H](NC(=O)N[C@@H](CC(=O)O)c1nc([C@@H](N)Cc2cnc[nH]2)no1)C(=O)O (stereo partly drawn) [Compound 34] | 59% |
| C[C@H](NC(=O)N[C@@H](CC(N)=O)c1nc([C@@H](N)CO)no1)C(=O)O [Compound 18] | 57% |
| N[C@@H](Cc1ccc(O)cc1)c1noc([C@@H]2CCCN2C(=O)N[C@@H](Cc2ccc(O)cc2)C(=O)O)n1 [Compound 7] | 91% |
| C[C@H](NC(=O)N[C@@H](C)c1nc([C@H](C)N)no1)C(=O)O [Compound 1] | 76% |
| CC(O)[C@H](NC(=O)N1CCC[C@H]1c1nc([C@@H](N)CO)no1)C(=O)O (stereo partly drawn) [Compound 6] | 69% |
| NCCCC[C@H](NC(=O)N[C@@H](CC(N)=O)c1nc([C@@H](N)CO)no1)C(=O)O [Compound 5] | 38% |
| CC(O)[C@H](NC(=O)N[C@@H](CCC(=O)O)c1nc([C@@H](N)CCCCN)no1)C(=O)O (stereo partly drawn) [Compound 38] | 52% |
| CC(O)[C@H](NC(=O)N[C@@H](CC(=O)O)c1nc([C@@H](N)CCCNC(=N)N)no1)C(=O)O (stereo partly drawn) [Compound 32] | 70% |
| CCC(C)[C@H](N)c1noc([C@H](CC(N)=O)NC(=O)N[C@H](C(=O)O)C(C)O)n1 (stereo partly drawn) [Compound 9] | 84% |
| N=C(N)NCCC[C@H](N)c1noc([C@H](CC(=O)O)NC(=O)N[C@@H](CO)C(=O)O)n1 [Compound 30] | 65% |
| CC(O)[C@H](NC(=O)N[C@@H](Cc1c[nH]c2ccccc12)c1nc([C@@H](N)CO)no1)C(=O)O (stereo partly drawn) [Compound 43] | 60% |
| NC(=O)C[C@H](NC(=O)N[C@@H](CCC(=O)O)C(=O)O)c1nc([C@@H](N)CO)no1 [Compound 4] | 44% |
| N[C@@H](CCC(=O)O)c1noc([C@@H]2CCCN2C(=O)N[C@@H](CC(=O)O)C(=O)O)n1 [Compound 24] | 17% |
| NCCCC[C@H](N)c1noc([C@H](CC(N)=O)NC(=O)N[C@@H](CO)C(=O)O)n1 [Compound 31] | 42% |
| CC(O)[C@H](NC(=O)N[C@@H](CC(N)=O)c1nc([C@@H](N)Cc2ccccc2)no1)C(=O)O (stereo partly drawn) [Compound 13] | 62% |
| NC(=O)CC[C@H](NC(=O)N[C@@H](CC(N)=O)c1nc([C@@H](N)CO)no1)C(=O)O [Compound 28] | 36% |

| Compound | activation at 0.1 µM |
| --- | --- |
| CC(O)[C@H](NC(=O)N[C@@H](Cc1ccccc1)c1nc([C@@H](N)CO)no1)C(=O)O (stereo partly drawn) [Compound 14] | 92% |
| N[C@@H](Cc1ccc(O)cc1)c1noc([C@@H]2C(O)CCN2C(=O)N[C@@H](Cc2ccc(O)cc2)C(=O)O)n1 (stereo partly drawn) [Compound 19] | 54% |
| NC(=O)C[C@H](NC(=O)N[C@@H](Cc1ccccc1)C(=O)O)c1nc([C@@H](N)CO)no1 [Compound 39] | 75% |
| CC(O)[C@H](NC(=O)N[C@@H](CCCCN)c1nc([C@@H](N)CO)no1)C(=O)O (stereo partly drawn) [Compound 11] | 66% |
| CC(O)[C@H](NC(=O)N[C@@H](C)c1nc([C@@H](N)CO)no1)C(=O)O (stereo partly drawn) [Compound 17] | 58% |
| N[C@@H](Cc1ccc(O)cc1)c1noc([C@@H]2CCCCN2C(=O)N[C@@H](Cc2ccc(O)cc2)C(=O)O)n1 [Compound 20] | 51% |
| CCC(C)[C@H](NC(=O)N[C@@H](CCC(=O)O)C(=O)O)c1nc([C@@H](N)CCC(N)=O)no1 (stereo partly drawn) [Compound 10] | 84% |
| NCCCC[C@H](N)c1noc([C@H](CCC(N)=O)NC(=O)N[C@@H](CO)C(=O)O)n1 [Compound 36] | 68% |
| CC(O)[C@H](NC(=O)N[C@H](c1nc([C@@H](N)CO)no1)C(C)C)C(=O)O (stereo partly drawn) [Compound 44] | 71% |
| CC(O)[C@H](NC(=O)N[C@@H](CC(N)=O)c1nc([C@@H](N)CCCCN)no1)C(=O)O (stereo partly drawn) [Compound 8] | 48% |
| CC(O)[C@H](NC(=O)N1CCC[C@H]1c1nc([C@@H](N)Cc2ccc(O)cc2)no1)C(=O)O (stereo partly drawn) [Compound 21] | 51% |
| CCC(C)[C@H](NC(=O)N[C@@H](CC(N)=O)c1nc([C@@H](N)CO)no1)C(=O)O (stereo partly drawn) [Compound 3] | 73% |
| CC(O)[C@H](NC(=O)N[C@@H](CC(N)=O)c1nc([C@@H](N)Cc2ccc(O)cc2)no1)C(=O)O (stereo partly drawn) [Compound 42] | 50% |
| CC(O)[C@H](NC(=O)N[C@@H](CC(N)=O)c1nc([C@@H](N)C(C)C)no1)C(=O)O (stereo partly drawn) [Compound 40] | 67% |
| NCCCC[C@H](NC(=O)N[C@@H](CC(=O)O)c1nc([C@@H](N)Cc2cnc[nH]2)no1)C(=O)O [Compound 35] | 66% |
| CC(O)[C@H](NC(=O)N[C@@H](CC(N)=O)c1nc([C@@H](N)CCC(=O)O)no1)C(=O)O (stereo partly drawn) [Compound 2] | 68% |

Continued, values first:

| activation at 0.1 µM | Compound |
| --- | --- |
| 119% | CCCNC(=O)CC[C@H](NC(=O)N[C@H](C(=O)O)C(C)O)c1nc([C@@H](N)CO)no1 (stereo partly drawn) [Compound 75] |
| 66% | CC(=O)Nc1ccc(S(=O)(=O)N[C@@H](CC(N)=O)c2nc([C@@H](N)CO)no2)cc1 [Compound 90] |
| 67% | CCCCCCNC(=O)CC[C@@H](NC(=O)N[C@H](C(=O)O)C(C)O)c1nc([C@@H](N)CO)no1 (stereo partly drawn) [Compound 76] |
| 37% | CC(O)[C@@H](NC(=O)N[C@@H](CC(N)=O)c1nc([C@@H](N)CO)no1)c1nnc(CO)o1 (stereo partly drawn) [Compound 79] |
| 54% | NC(=O)C[C@H](NS(=O)(=O)C1CCCCC1)c1nc([C@@H](N)CO)no1 [Compound 89] |
| 53% | CSCC[C@H](N)c1noc([C@H](CC(N)=O)NC(=O)N[C@@H](CC(=O)O)C(=O)O)n1 [Compound 46] |
| 10% | NC(=O)C[C@H](NS(=O)(=O)C1CCCC1)c1nc([C@@H](N)CO)no1 [Compound 88] |
| 17% | CC(C)[C@H](NC(=O)N[C@@H](CC(N)=O)c1nc([C@@H](N)CCCCN)no1)C(=O)O [Compound 45] |
| 42% | CCCCCCNC(=O)CC[C@H](NC(=O)N[C@@H](CCC(N)=O)C(=O)N[C@H](C(=O)O)C(C)O)c1nc([C@@H](N)CO)no1 (stereo partly drawn) [Compound 78] |
| 71% | CCC(C)[C@H](N)c1noc([C@@H](NC(=O)N[C@H](C(=O)O)C(C)O)C(C)CC)n1 (stereo partly drawn) [Compound 52] |
| 26% | NC(=O)C[C@H](NC(=O)N[C@@H](CC(N)=O)c1nc([C@@H](N)CC(N)=O)no1)C(=O)O [Compound 56] |
| 30% | Cn1cc(CN[C@@H](CC(N)=O)c2nc([C@@H](N)CO)no2)cn1 [Compound 95] |
| 71% | NC(=O)C[C@H](NS(=O)(=O)C1CC1)c1nc([C@@H](N)CO)no1 [Compound 84] |
| 34% | CC(O)[C@H](NC(=O)N[C@@H](CC(N)=O)c1noc([C@@H](N)CO)n1)C(=O)O (stereo partly drawn) [Compound 83] |
| 49% | N[C@@H](CO)c1noc([C@H](CO)NC(=O)N[C@@H](CO)C(=O)O)n1 [Compound 47] |
| 99% | CC(O)[C@H](N)c1noc([C@H](Cc2ccc(O)cc2)NC(=O)N2CCC[C@H]2C(=O)O)n1 (stereo partly drawn) [Compound 60] |
